In patent US7374944B2, “Device and bioanalytical method utilizing asymmetric biofunctionalized membrane” (Purdue Research Foundation, priority 2001, dated 2008):

Assays:
[1] = Capacitance and single channel measurements of C20 bolalipid membranes; details: C20 bolalipid monolayer
[2] = Impedance measurements of supported bolalipid membranes on Au electrodes
Procedure: The effect of GA surface density on supported membrane impedance was determined using electrodes that had been coated with supported bolalipids by pretreatment with 2 prior to immersion for 24 hours into sonicated 1-GA vesicles containing varying amounts of GA. The 1-GA vesicle dispersions were prepared by sonicating dry 1-GA films in water (nominal GA:bolalipid molar ratios ranging from 1:500-1:50; 2 mM total lipid concentration). […] This observation is consistent with ^23Na NMR ion flux measurements made previously in our laboratory for gramicidin-containing 1 vesicles.
The effects of gramicidin loading on supported bolalipid membrane electrode impedance was further investigated in a sequential deposition experiment (FIG. 10). Adsorption of 2 onto Au electrodes for 1 hour to give partial surface coverage produced significant increases in impedance. Immersion of these pretreated electrodes into bolalipid vesicle solutions where gramicidin was either absent or present (i.e. 1 and 1-GA vesicles, respectively) produced membrane coated electrodes that had substantially different impedance characteristics in 10^−1-10^2 Hz frequency range. […]

gramicidin
ion flux across the membrane [1]: resulted in ion flux across the membrane
impedance of 2-treated electrode after immersion in 1-GA membrane solution ([2]; 1:100 molar ratio GA:1, 24 hours, compared with 2 or 2-1 coatings): observed impedances were lower
effect of GA surface density on supported membrane impedance ([2]; GA:bolalipid molar ratios 1:500-1:50, 1-10^3 Hz range): impedance decreases with increasing GA concentration
